How the values were obtained:
Pyrenophora teres = test: Activity against net blotch Pyrenophora teres in the microtiter test; assay type: cell-based; details: relative growth vs active substance-free control (=100%), absorption 405 nm, day 7 after inoculation
Phakopsora pachyrhizi = test: Protective control of soy bean rust on soy beans caused by Phakopsora pachyrhizi (greenhouse); assay type: in vivo; details: % diseased leaf area, soy bean seedlings sprayed 1 day before inoculation, untreated control 90
Procedure: (§1) The active substances were formulated separately or together as a stock solution comprising 25 mg of active substance which was made up to 10 ml using a mixture of acetone and/or dimethyl sulfoxide (DMSO) and the emulsifier Wettol EM 31 (wetting agent having emulsifying and dispersing action based on ethoxylated alkylphenols) in a volume ratio of solvent/emulsifier of 99 to 1. This solution was then made up to 100 ml using water. This stock solution was diluted with the solvent/emulsifier/water mixture described to the active substance concentration given below.
Leaves of pot-grown soy bean seedlings were sprayed to run-off with an aqueous suspension, containing the concentration of active ingredient or their mixture as described below. The plants were allowed to air-dry. The trial plants were cultivated for 1 day in a greenhouse chamber at 23-27° C. and a relative humidity between 60 and 80%. Then the plants were inoculated with spores of Phakopsora pachyrhizi. To ensure the success the artificial inoculation, the plants were transferred to a humid chamber with a relative humidity of about 95% and 20 to 24° C. for 24 h. The trial plants were cultivated for fourteen days in a greenhouse chamber at 23-27° C. and a relative humidity between 60 and 80%. The extent of fungal attack on the leaves was visually assessed as % diseased leaf area.

Septoria tritici = test: Preventative control of leaf blotch on wheat caused by Septoria tritici (Septtr P1, greenhouse); assay type: in vivo; details: % diseased leaf area, wheat seedlings sprayed 1 day before inoculation, untreated control 80
Procedure: as §1
Leaves of pot-grown wheat seedling were sprayed to run-off with an aqueous suspension of the active compound or their mixture, prepared as described. The plants were allowed to air-dry. At the following day the plants were inoculated with an aqueous spore suspension of Septoria tritici. Then the trial plants were immediately transferred to a humid chamber at 18-22° C. and a relative humidity close to 100%. After 4 days the plants were transferred to a chamber with 18-22° C. and a relative humidity close to 70%. After 4 weeks the extent of fungal attack on the leaves was visually assessed as % diseased leaf area.

Plasmopara viticola = assay type: in vivo; details: % diseased leaf area on lower leaf surface, grape cuttings sprayed 1 day before inoculation, untreated control 100
Pyricularia oryzae = assay type: cell-based; details: relative growth vs active substance-free control (=100%), absorption 405 nm, day 7 after inoculation

CN(C)C1=C(C#N)C(=O)N(C)C1=O
melting point: 120 °C

CN1C(=O)C(Oc2ccccc2)=C(Oc2ccccc2)C1=O
Growth at 32 ppm (%) (Pyrenophora teres): 1%

CCN1C(=O)C(Cl)=C(Sc2ccccc2S)C1=O
Disease (%) at 1000 pm Phakpa P1 (Phakopsora pachyrhizi): 3%

CCN1C(=O)C(Cl)=C(Sc2ccccc2O)C1=O
Disease (%) at 1000 pm Septtr P1 (Septoria tritici): 1%

COC1=C(OC)C(=O)N(C)C1=O
Disease (%) at 1000 pm Plasvi P1 (Plasmopara viticola): 20%

CN1C(=O)C(N)=C(Cl)C1=O
Disease (%) at 1000 pm Plasvi P1 (Plasmopara viticola): 7%

CSC1=C(SC)C(=O)N(C)C1=O [drawing 56]
Growth at 32 ppm (%) (Pyrenophora teres): 0%

CCN1C(=O)C(Cl)=C(Nc2ccccc2O)C1=O [drawing 57]
Growth at 32 ppm (%) (Pyrenophora teres): 15%

CCN1C(=O)C=C(Nc2ccccc2O)C1=O [drawing 58]
Growth at 32 ppm (%) (Pyrenophora teres): 12%

CSC1=C(SC)C(=O)N(C)C1=O [drawing 59]
Growth at 32 ppm (%) (Pyricularia oryzae): 0%

CCN1C(=O)C(Cl)=C(Nc2ccccc2O)C1=O [drawing 60]
Growth at 32 ppm (%) (Pyricularia oryzae): 10%

CCN1C(=O)C=C(Nc2ccccc2O)C1=O [drawing 61]
Growth at 32 ppm (%) (Pyricularia oryzae): 11%

From US20140045689A1, “3,4-disubstituted pyrrole 2,5-diones and their use as fungicides” (priority 2011, published 2014)
